# Results as given in patent US9833497B2, “Human originated EGF domain proteins and use of the same” (CHENGDU SOURCEBIO LIMITED-LIABILITY COMPANY, priority 2013, dated 2017).
# Key:
# Type in all cases: cell-based
# Proteus vulgaris = assay: MIC against Gram-negative bacteria: Proteus vulgaris; conditions: 5×10^5 CFU/mL; for MIC: P. vulgaris
# Summary of the method: (§1)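 Bacteria grown in LB at 37° C to McFarland 0.5, resuspended and seeded at 5×10^5 CFU/mL in 96-well plates. Purified human EGF-domain proteins two-fold serially diluted, triplicate wells; cultured at 37° C, shaking 175 rpm. MIC = lowest protein concentration with no growth.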
# E. coli DH5α = assay: Antibacterial activity: MIC and growth curve against E. coli DH5α in 96-well plate; conditions: minimal inhibitory concentration against E. coli DH5α; 96-well plate, 5×10^5 CFU/mL, 37° C., judged after 8 h
# Summary of the method: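 MIC taken as lowest protein level with no bacterial growth, tracked by A600 every 30 min during 37 °C, 175 rpm culture. Two-fold protein series 50-12.5 μg/mL final, triplicate wells, against 5×10^5 CFU/mL of LB-washed mid-log cells.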
# Serratia marcescens = assay: MIC against Gram-negative bacteria: Serratia marcescens; conditions: 5×10^5 CFU/mL; for MIC: S. marcescens
# Summary of the method: as §1
# Moraxella catarrhalis = assay: MIC against Gram-negative bacteria: Moraxella catarrhalis; conditions: 5×10^5 CFU/mL; for MIC: M. catarrhalis
# Summary of the method: as §1
# Aeromonas hydrophila = assay: MIC against Gram-negative bacteria: Aeromonas hydrophila; conditions: 5×10^5 CFU/mL; for MIC: A. hydrophila
# Summary of the method: as §1
# Klebsiella pneumonia = assay: MIC against Gram-negative bacteria: Klebsiella pneumonia; conditions: 5×10^5 CFU/mL; for MIC: K. pneumonia
# Summary of the method: as §1
# Citrobacter diversus = assay: MIC against Gram-negative bacteria: Citrobacter diversus; conditions: 5×10^5 CFU/mL; for MIC: C. diversus
# Summary of the method: as §1
# Pseudomonas aeruginosa = assay: MIC against Gram-negative bacteria: Pseudomonas aeruginosa; conditions: 5×10^5 CFU/mL; for MIC: P. aeruginosa
# Summary of the method: as §1
# E. coli BL21 = assay: MIC against Gram-negative bacteria: E. coli BL21; conditions: 5×10^5 CFU/mL
# Summary of the method: as §1
# Proteus mirabilis = assay: MIC against Gram-negative bacteria: Proteus mirabilis; conditions: 5×10^5 CFU/mL; for MIC: P. mirabilis
# Summary of the method: as §1
# Enterobacter cloacae = assay: MIC against Gram-negative bacteria: Enterobacter cloacae; conditions: 5×10^5 CFU/mL; for MIC: E. cloacae
# Summary of the method: as §1
# [1] = E. coli BL21, 10 h cultivation at 37° C.
# [2] = 10 h cultivation at 37° C., two-fold serial dilution
# [3] = Proteus vulgaris, 96-well plate, 37° C., 10 h
# [4] = Serratia marcescens, 96-well plate, 37° C., 10 h
# [5] = Moraxella catarrhalis, 96-well plate, 37° C., 10 h
# [6] = Aeromonas hydrophila, 96-well plate, 37° C., 10 h
# [7] = Klebsiella pneumonia, 96-well plate, 37° C., 10 h
# [8] = Citrobacter diversus, 96-well plate, 37° C., 10 h
# [9] = Pseudomonas aeruginosa, 96-well plate, 37° C., 10 h
# [10] = E. coli BL21, 96-well plate, 37° C., 10 h
# [11] = Proteus mirabilis, 96-well plate, 37° C., 10 h
# [12] = Enterobacter cloacae, 96-well plate, 37° C., 10 h
substance,measurement,setting,value
PRT1439 (EEDECAKPDRGGCEQRCLNTLGSYQCACEPGYELGPDRRSCE; listed as Homo sapiens),MIC against P. vulgaris,"Proteus vulgaris; Proteus vulgaris, 10 h cultivation at 37° C.",12.5 mg/L
same,MIC,E. coli DH5α,50 mg/L
same,MIC against S. marcescens,"Serratia marcescens; Serratia marcescens, 10 h cultivation at 37° C.",50 mg/L
same,MIC against M. catarrhalis,"Moraxella catarrhalis; Moraxella catarrhalis, 10 h cultivation at 37° C.",12.5 mg/L
same,MIC against A. hydrophila,"Aeromonas hydrophila; Aeromonas hydrophila, 10 h cultivation at 37° C.",12.5 mg/L
same,MIC against K. pneumonia,"Klebsiella pneumonia; Klebsiella pneumonia, 10 h cultivation at 37° C.",12.5 mg/L
same,MIC against C. diversus,"Citrobacter diversus; Citrobacter diversus, 10 h cultivation at 37° C.",50 mg/L
same,MIC against P. aeruginosa,"Pseudomonas aeruginosa; Pseudomonas aeruginosa, 10 h cultivation at 37° C.",50 mg/L
same,MIC against E. coli BL21,E. coli BL21; [1],12.5 mg/L
same,MIC against P. mirabilis,"Proteus mirabilis; Proteus mirabilis, 10 h cultivation at 37° C.",50 mg/L
same,MIC against E. cloacae,"Enterobacter cloacae; Enterobacter cloacae, 10 h cultivation at 37° C.",50 mg/L
PRT312 (DNNECTSDINLCGSKGICQNTPGSFTCECQRGFSLDQTGSSCE; listed as Homo sapiens),MIC,Proteus vulgaris; 10 h cultivation at 37° C.,25 mg/L
same,MIC,E. coli DH5α,50 mg/L
same,MIC,Serratia marcescens; 10 h cultivation at 37° C.,50 mg/L
same,MIC,Moraxella catarrhalis; 10 h cultivation at 37° C.,25 mg/L
same,MIC,Aeromonas hydrophila; 10 h cultivation at 37° C.,25 mg/L
same,MIC,Klebsiella pneumonia; 10 h cultivation at 37° C.,25 mg/L
same,MIC,Citrobacter diversus; 10 h cultivation at 37° C.,50 mg/L
same,MIC,Pseudomonas aeruginosa; 10 h cultivation at 37° C.,50 mg/L
same,MIC,E. coli BL21; [1],12.5 mg/L
same,MIC,Proteus mirabilis; 10 h cultivation at 37° C.,12.5 mg/L
same,MIC,Enterobacter cloacae; 10 h cultivation at 37° C.,12.5 mg/L
PRT433 (DIDECRYGYCQQLCANVPGSYSCTCNPGFTLNEDGRSCQ; listed as Homo sapiens),MIC,Proteus vulgaris; 10 h cultivation at 37° C.,12.5 mg/L
same,MIC,E. coli DH5α,12.5 mg/L
same,MIC,Serratia marcescens; 10 h cultivation at 37° C.,50 mg/L
same,MIC,Moraxella catarrhalis; 10 h cultivation at 37° C.,12.5 mg/L
same,MIC,Aeromonas hydrophila; 10 h cultivation at 37° C.,12.5 mg/L
same,MIC,Klebsiella pneumonia; 10 h cultivation at 37° C.,12.5 mg/L
same,MIC,Citrobacter diversus; 10 h cultivation at 37° C.,50 mg/L
same,MIC,Pseudomonas aeruginosa; 10 h cultivation at 37° C.,12.5 mg/L
same,MIC,E. coli BL21; [1],25 mg/L
same,MIC,Proteus mirabilis; 10 h cultivation at 37° C.,50 mg/L
same,MIC,Enterobacter cloacae; 10 h cultivation at 37° C.,50 mg/L
PRT1074 (QYRQCSGYCENFGTCQMAADGSRQCRCTAYFEGSRCE; listed as Homo sapiens),MIC P. vulgaris,Proteus vulgaris; [2],12.5 mg/L
same,MIC,E. coli DH5α,50 mg/L
same,MIC S. marcescens,Serratia marcescens; [2],12.5 mg/L
same,MIC M. catarrhalis,Moraxella catarrhalis; [2],12.5 mg/L
same,MIC A. hydrophila,Aeromonas hydrophila; [2],12.5 mg/L
same,MIC K. pneumonia,Klebsiella pneumonia; [2],12.5 mg/L
same,MIC C. diversus,Citrobacter diversus; [2],12.5 mg/L
same,MIC P. aeruginosa,Pseudomonas aeruginosa; [2],50 mg/L
same,MIC E. coli BL21,E. coli BL21; [2],12.5 mg/L
same,MIC P. mirabilis,Proteus mirabilis; [2],12.5 mg/L
same,MIC E. cloacae,Enterobacter cloacae; [2],12.5 mg/L
PRT478 (ATQYCSRAQCHGHGRCVRRNPSASTFLHLSTNSFRLVPGHAPGEPQLRPVGELSWADIDH; listed as Homo sapiens),MIC against P. vulgaris,"Proteus vulgaris; 96-well plate, 37° C., 10 h",25 mg/L
same,MIC,E. coli DH5α,50 mg/L
same,MIC against S. marcescens,"Serratia marcescens; 96-well plate, 37° C., 10 h",12.5 mg/L
same,MIC against M. catarrhalis,"Moraxella catarrhalis; 96-well plate, 37° C., 10 h",25 mg/L
same,MIC against A. hydrophila,"Aeromonas hydrophila; 96-well plate, 37° C., 10 h",25 mg/L
same,MIC against K. pneumonia,"Klebsiella pneumonia; 96-well plate, 37° C., 10 h",25 mg/L
same,MIC against C. diversus,"Citrobacter diversus; 96-well plate, 37° C., 10 h",100 mg/L
same,MIC against P. aeruginosa,"Pseudomonas aeruginosa; 96-well plate, 37° C., 10 h",12.5 mg/L
same,MIC against E. coli BL21,"E. coli BL21; 96-well plate, 37° C., 10 h",25 mg/L
same,MIC against P. mirabilis,"Proteus mirabilis; 96-well plate, 37° C., 10 h",50 mg/L
same,MIC against E. cloacae,"Enterobacter cloacae; 96-well plate, 37° C., 10 h",50 mg/L
PRT1260 (DINECLVNNGGCDHFCRNTVGSFECGCRKGYKLLTDERTCQ; listed as Homo sapiens),MIC against P. vulgaris,Proteus vulgaris; [3],50 mg/L
same,MIC,E. coli DH5α,25 mg/L
same,MIC against S. marcescens,Serratia marcescens; [4],25 mg/L
same,MIC against M. catarrhalis,Moraxella catarrhalis; [5],50 mg/L
same,MIC against A. hydrophila,Aeromonas hydrophila; [6],50 mg/L
same,MIC against K. pneumonia,Klebsiella pneumonia; [7],12.5 mg/L
same,MIC against C. diversus,Citrobacter diversus; [8],12.5 mg/L
same,MIC against P. aeruginosa,Pseudomonas aeruginosa; [9],25 mg/L
same,MIC against E. coli BL21,E. coli BL21; [10],50 mg/L
same,MIC against P. mirabilis,Proteus mirabilis; [11],12.5 mg/L
same,MIC against E. cloacae,Enterobacter cloacae; [12],25 mg/L
PRT1199 (AFCEEGCRYGGTCVAPNKCVCPSGFTGSHCE; listed as Homo sapiens),MIC against P. vulgaris,Proteus vulgaris; [3],50 mg/L
same,MIC,E. coli DH5α,50 mg/L
same,MIC against S. marcescens,Serratia marcescens; [4],25 mg/L
same,MIC against M. catarrhalis,Moraxella catarrhalis; [5],12.5 mg/L
same,MIC against A. hydrophila,Aeromonas hydrophila; [6],25 mg/L
same,MIC against K. pneumonia,Klebsiella pneumonia; [7],12.5 mg/L
same,MIC against C. diversus,Citrobacter diversus; [8],25 mg/L
same,MIC against P. aeruginosa,Pseudomonas aeruginosa; [9],50 mg/L
same,MIC against E. coli BL21,E. coli BL21; [10],12.5 mg/L
same,MIC against P. mirabilis,Proteus mirabilis; [11],25 mg/L
same,MIC against E. cloacae,Enterobacter cloacae; [12],50 mg/L
